{"source": "paper PMC5615911", "about": "(Toxicology Reports, 2016)", "key": {"[1]": {"conditions": "diet, 92 or 93 days; cited from earlier work"}, "CHO-WBL cells": {"tested_on": "CHO-WBL cells", "conditions": "±metabolic activation, up to 5000 μg/mL; cited from earlier work"}, "TA100": {"tested_on": "TA100", "conditions": "pre-incubation, presence of metabolic activation; cited from earlier work"}, "[2]": {"tested_on": "S. typhimurium strains TA98, TA100, TA1535, TA1537", "conditions": "up to 5000 μg/plate; cited from earlier work"}, "[3]": {"conditions": "male, cited from earlier work"}, "[4]": {"tested_on": "femoral bone marrow polychromatic erythrocytes", "conditions": "ip, cited from earlier work"}, "TA1535": {"tested_on": "TA1535", "conditions": "plate incorporation, absence of metabolic activation; cited from earlier work"}, "CYP3A4 [5]": {"molecular_target": "T1, CYP3A4 (Homo sapiens, UniProt P08684)", "T1 sequence (P08684 whole entry)": "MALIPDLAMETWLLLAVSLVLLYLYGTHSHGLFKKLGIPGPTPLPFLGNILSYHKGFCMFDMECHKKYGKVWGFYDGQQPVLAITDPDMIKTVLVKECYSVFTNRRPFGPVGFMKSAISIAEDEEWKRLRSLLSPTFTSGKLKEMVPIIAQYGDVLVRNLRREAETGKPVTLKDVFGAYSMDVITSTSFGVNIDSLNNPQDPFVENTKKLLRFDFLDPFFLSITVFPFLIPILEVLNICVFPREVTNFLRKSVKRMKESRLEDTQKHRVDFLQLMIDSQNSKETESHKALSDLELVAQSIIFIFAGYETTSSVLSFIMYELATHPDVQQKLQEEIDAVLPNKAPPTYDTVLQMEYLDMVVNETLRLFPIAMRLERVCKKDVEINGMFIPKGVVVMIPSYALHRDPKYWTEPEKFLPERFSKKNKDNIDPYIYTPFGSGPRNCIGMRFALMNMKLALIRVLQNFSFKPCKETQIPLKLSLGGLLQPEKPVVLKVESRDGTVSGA", "conditions": "ref Senomyx, unpublished results; cited from earlier work"}, "CYP3A4 [6]": {"molecular_target": "T1, CYP3A4", "conditions": "ref Senomyx, unpublished results; cited from earlier work", "remark": "listed apart in the source"}, "[7]": {"tested_on": "GPCRs, ion channels, nuclear receptors, transporters", "conditions": "10 μM; ref Senomyx, unpublished results; cited from earlier work"}, "[8]": {"conditions": "28 days oral gavage, highest dose evaluated; ref Senomyx, unpublished results; cited from earlier work"}, "[9]": {"conditions": "ref Chi, unpublished results, cited from earlier work"}, "[10]": {"experiment": "In vitro metabolism, rat liver microsomes", "assay_type": "in vitro ADME, Sprague-Dawley rat", "conditions": "60 min, with NADPH, positive control"}, "[11]": {"experiment": "In vitro metabolism, human liver microsomes", "assay_type": "in vitro ADME", "conditions": "60 min, with NADPH, positive control"}, "[12]": {"conditions": "female, oral gavage 10 mg/kg bw"}, "[13]": {"conditions": "female, oral gavage 30 mg/kg bw"}, "[14]": {"conditions": "female, oral gavage 100 mg/kg bw"}}, "note": "Like-named read-outs stand apart in the source and are kept apart here.", "data": [{"smiles": "COc1ccc(CNC(=O)C(=O)NCCc2ccccn2)c(OC)c1", "note": "[S336, N^1-(2,4-dimethoxybenzyl)-N^2-(2-(pyridin-2-yl)ethyl)oxalamide]", "values": [{"measurement": "NOEL", "setting": "[1]", "value": "at least 100 mg/kg bw/day"}, {"measurement": "Clastogenicity", "setting": "CHO-WBL cells", "value": "non-clastogenic"}, {"measurement": "Reverse mutation result", "setting": "TA100", "value": "weakly positive"}, {"measurement": "Mutagenicity, conclusion", "setting": "[2]", "value": "non-mutagenic"}, {"measurement": "AUC0-last", "setting": "[3]; iv 0.1 mg/kg bw", "value": "65.0 ± 1.3", "unit": "ng·h/mL"}, {"measurement": "Cmax", "setting": "[3]; iv 0.1 mg/kg bw", "value": "207 ± 25.8", "unit": "ng/mL"}, {"measurement": "Tmax", "setting": "[3]; iv 0.1 mg/kg bw", "value": 1.8, "unit": "min"}, {"measurement": "t1/2", "setting": "[3]; iv 0.1 mg/kg bw", "value": 25.2, "unit": "min"}, {"measurement": "% F", "setting": "[3]; oral gavage 10 mg/kg bw", "value": 89.4, "unit": "%"}, {"measurement": "AUC0-last", "setting": "[3]; oral gavage 10 mg/kg bw", "value": "5809 ± 444", "unit": "ng·h/mL"}, {"measurement": "Cmax", "setting": "[3]; oral gavage 10 mg/kg bw", "value": "7027 ± 925", "unit": "ng/mL"}, {"measurement": "Tmax", "setting": "[3]; oral gavage 10 mg/kg bw", "value": 15, "unit": "min"}, {"measurement": "t1/2", "setting": "[3]; oral gavage 10 mg/kg bw", "value": 41.4, "unit": "min"}, {"measurement": "% F", "setting": "[3]; oral gavage 30 mg/kg bw", "value": 114.2, "unit": "%"}, {"measurement": "AUC0-last", "setting": "[3]; oral gavage 30 mg/kg bw", "value": "22260 ± 727", "unit": "ng·h/mL"}, {"measurement": "Cmax", "setting": "[3]; oral gavage 30 mg/kg bw", "value": "23430 ± 1436", "unit": "ng/mL"}, {"measurement": "Tmax", "setting": "[3]; oral gavage 30 mg/kg bw", "value": 11.4, "unit": "min"}, {"measurement": "t1/2", "setting": "[3]; oral gavage 30 mg/kg bw", "value": 42.6, "unit": "min"}, {"measurement": "% F", "setting": "[3]; oral gavage 100 mg/kg bw", "value": 134.6, "unit": "%"}, {"measurement": "AUC0-last", "setting": "[3]; oral gavage 100 mg/kg bw", "value": "87490 ± 13350", "unit": "ng·h/mL"}, {"measurement": "Cmax", "setting": "[3]; oral gavage 100 mg/kg bw", "value": "36270 ± 6004", "unit": "ng/mL"}, {"measurement": "Tmax", "setting": "[3]; oral gavage 100 mg/kg bw", "value": 15, "unit": "min"}, {"measurement": "t1/2", "setting": "[3]; oral gavage 100 mg/kg bw", "value": 58.8, "unit": "min"}, {"measurement": "Fold increase in AUClast for 10-fold increase in oral dose", "setting": "[3]", "value": 15.1, "unit": "fold"}, {"measurement": "Micronucleated polychromatic erythrocytes vs negative control", "setting": "[4]; up to 800 mg/kg bw, 24, 36, 48 h", "value": "no statistically significant differences"}, {"measurement": "Maximum tolerated dose", "setting": "[4]", "value": 800, "unit": "mg/kg bw"}, {"measurement": "Reverse mutation result", "setting": "TA1535", "value": "weakly positive"}]}, {"smiles": "COc1cccc(CNC(=O)C(=O)NCCc2ccccn2)c1OC", "note": "[S5456, N^1-(2,3-dimethoxybenzyl)-N^2-(2-(pyridin-2-yl)ethyl)oxalamide]", "values": [{"measurement": "% inhibition at 10 μM, any CYP isozyme of the panel", "setting": "CYP3A4 [5]", "value": "< 50", "unit": "%"}, {"measurement": "% inhibition at 10 μM", "setting": "CYP3A4 [6]", "value": 51, "unit": "%"}, {"measurement": "Significant off-target activities", "setting": "[7]", "value": "No other significant off-target activities"}, {"measurement": "NOEL", "setting": "[8]", "value": 140, "unit": "mg/kg bw/day"}, {"measurement": "AUC0-last", "setting": "[9]; female, iv 1.0 mg/kg bw", "value": "817 ± 186", "unit": "ng·h/mL"}, {"measurement": "Cmax", "setting": "[9]; female, iv 1.0 mg/kg bw", "value": "2398 ± 391", "unit": "ng/mL"}, {"measurement": "Tmax", "setting": "[9]; female, iv 1.0 mg/kg bw", "value": 1.8, "unit": "min"}, {"measurement": "t1/2", "setting": "[9]; female, iv 1.0 mg/kg bw", "value": 0.32, "unit": "h"}, {"measurement": "% F", "setting": "[9]; [12]", "value": 51.4, "unit": "%"}, {"measurement": "AUC0-last", "setting": "[9]; [12]", "value": "4201 ± 1013", "unit": "ng·h/mL"}, {"measurement": "Cmax", "setting": "[9]; [12]", "value": "3258 ± 1087", "unit": "ng/mL"}, {"measurement": "Tmax", "setting": "[9]; [12]", "value": 15, "unit": "min"}, {"measurement": "t1/2", "setting": "[9]; [12]", "value": 1.20, "unit": "h"}, {"measurement": "% F", "setting": "[9]; [13]", "value": 108.6, "unit": "%"}, {"measurement": "AUC0-last", "setting": "[9]; [13]", "value": "26610 ± 7306", "unit": "ng·h/mL"}, {"measurement": "Cmax", "setting": "[9]; [13]", "value": "10980 ± 1500", "unit": "ng/mL"}, {"measurement": "Tmax", "setting": "[9]; [13]", "value": 19.8, "unit": "min"}, {"measurement": "t1/2", "setting": "[9]; [13]", "value": 1.59, "unit": "h"}, {"measurement": "% F", "setting": "[9]; [14]", "value": 250.2, "unit": "%"}, {"measurement": "AUC0-last", "setting": "[9]; [14]", "value": "204400 ± 44540", "unit": "ng·h/mL"}, {"measurement": "Cmax", "setting": "[9]; [14]", "value": "34670 ± 4196", "unit": "ng/mL"}, {"measurement": "Tmax", "setting": "[9]; [14]", "value": 55.2, "unit": "min"}, {"measurement": "t1/2", "setting": "[9]; [14]", "value": 2.92, "unit": "h"}, {"measurement": "Fold increase in AUClast for 10-fold increase in oral dose", "setting": "[9]; female", "value": 48.7, "unit": "fold"}, {"measurement": "AUC0-last", "setting": "[9]; male, iv 1.0 mg/kg bw", "value": "757 ± 112", "unit": "ng·h/mL"}, {"measurement": "Cmax", "setting": "[9]; male, iv 1.0 mg/kg bw", "value": "2633 ± 363", "unit": "ng/mL"}, {"measurement": "Tmax", "setting": "[9]; male, iv 1.0 mg/kg bw", "value": 1.8, "unit": "min"}, {"measurement": "t1/2", "setting": "[9]; male, iv 1.0 mg/kg bw", "value": 0.32, "unit": "h"}, {"measurement": "% F", "setting": "[9]; male, oral gavage 10 mg/kg bw", "value": 39.6, "unit": "%"}, {"measurement": "AUC0-last", "setting": "[9]; male, oral gavage 10 mg/kg bw", "value": "3001 ± 498", "unit": "ng·h/mL"}, {"measurement": "Cmax", "setting": "[9]; male, oral gavage 10 mg/kg bw", "value": "3120 ± 787", "unit": "ng/mL"}, {"measurement": "Tmax", "setting": "[9]; male, oral gavage 10 mg/kg bw", "value": 15, "unit": "min"}, {"measurement": "t1/2", "setting": "[9]; male, oral gavage 10 mg/kg bw", "value": 0.95, "unit": "h"}, {"measurement": "% F", "setting": "[9]; male, oral gavage 30 mg/kg bw", "value": 42.0, "unit": "%"}, {"measurement": "AUC0-last", "setting": "[9]; male, oral gavage 30 mg/kg bw", "value": "9535 ± 4190", "unit": "ng·h/mL"}, {"measurement": "Cmax", "setting": "[9]; male, oral gavage 30 mg/kg bw", "value": "7643 ± 2404", "unit": "ng/mL"}, {"measurement": "Tmax", "setting": "[9]; male, oral gavage 30 mg/kg bw", "value": 18.6, "unit": "min"}, {"measurement": "t1/2", "setting": "[9]; male, oral gavage 30 mg/kg bw", "value": 1.09, "unit": "h"}, {"measurement": "% F", "setting": "[9]; male, oral gavage 100 mg/kg bw", "value": 73.9, "unit": "%"}, {"measurement": "AUC0-last", "setting": "[9]; male, oral gavage 100 mg/kg bw", "value": "55950 ± 19820", "unit": "ng·h/mL"}, {"measurement": "Cmax", "setting": "[9]; male, oral gavage 100 mg/kg bw", "value": "33070 ± 14550", "unit": "ng/mL"}, {"measurement": "Tmax", "setting": "[9]; male, oral gavage 100 mg/kg bw", "value": 15, "unit": "min"}, {"measurement": "t1/2", "setting": "[9]; male, oral gavage 100 mg/kg bw", "value": 1.35, "unit": "h"}, {"measurement": "Fold increase in AUClast for 10-fold increase in oral dose", "setting": "[9]; male", "value": 18.6, "unit": "fold"}]}, {"smiles": "C[C@]12CC[C@H]3[C@@H](CCC4=CC(=O)CC[C@@]43C)[C@@H]1CC[C@@H]2O", "note": "[testosterone, reference compound]", "values": [{"measurement": "Turnover", "setting": "[10]", "value": "greater than 85%"}, {"measurement": "Turnover", "setting": "[11]", "value": "greater than 85%"}]}]}
